How the values were obtained:
[1] = tested on: OTUB2 gene in cells with only ERα; details: MCF-7 cells with only ERα, qPCR, 24 h
[2] = target: purified full-length human ERβ (Homo sapiens, UniProt Q92731); experiment: biochemical
hERβ = hERβ (Homo sapiens, UniProt Q92731); details: HEC-1 reporter assay

SMILES | Stimulation of OTUB2 in cells with only ERα [1] | Ki [2] | Reduction in potency on ERβ compared to 2a (hERβ)
C/C(=N\O)c1cc(-c2ccc(O)cc2)ccc1O [2a, (E)-1-(6-Hydroxy-3-(4-hydroxyphenyl)phenyl)ethanone Oxime] | no stimulation | 1.1 nM | 
C/C(=N\O)c1cc(-c2ccc(O)c(F)c2)ccc1O [2c, (E)-1-(6-Hydroxy-3-(3-fluoro-4-hydroxyphenyl)phenyl)ethanone Oxime] | no stimulation |  | ~4 fold

Reference: publication PMC4610302 (Journal of Medicinal Chemistry, 2015)
